# Measurements reported in patent publication US8759104B2, “Cationic lipids” (The University Court of the University of Edinburgh, priority 2010, dated 2014).
# Tested on: HeLa cells
# Assay: Transfection of pEGFP-C1 reporter plasmid into HeLa cells, GFP expression by flow cytometry
# Assay type: cell-based, human
# Conditions: HeLa cells 48 h after transfection with reporter plasmid, flow cytometry
# Procedure: The corresponding cationic lipid (1 mM in methanol) were mixed in different proportions with DOPE (10 mg/mL in chloroform) and the organic solvent removed by evaporation in an oven (37° C.) overnight. The resultant thin films were then hydrated with PBS. The solutions were vortexed (10-20 s) and incubated at ambient temperature for 20 min. Plasmid DNA or siRNA solution (0.04 mg/mL in PBS or another isotonic solution) was subsequently added and the solution vortexed (10-20 s). The lipoplexes were incubated at room temperature for 20 min before being used.
# Human HeLa cells were grown in RPMI supplemented with 4 mM glutamine, 10% FCS and 100 units/ml penicillin/streptomycin (RPMI-CM) until 80% confluence. HEK293 and B16F10 cells were grown in DMEM supplemented with 4 mM glutamine, 10% FCS and 100 units/ml penicillin/streptomycin (DMEM-CM) until 80% confluence. Cells were then suspended using trypsin/EDTA and counted. 2×10^4 cells in 150 μL of media per well were seeded in 96 well plates and incubated overnight. The day afterwards, the different lipoplex formulations were added. Each experiment was performed in quadruplicate, using Effectene® Transfection Reagent (Qiagen), Lipofectamine™ 2000 (Invitrogen) and Fugene (Roche) as positive controls and untreated cells as negative controls. After two days incubation at 37° C. and 5% CO2 (the change of media after transfection was not necessary), the green fluorescent protein (GFP) expression, as a consequence of transfecting the pEGFP-C1, was evidenced using a fluorescent microscope (Leica) and measured by flow cytometry. For the flow cytometry analysis, cells were washed twice with PBS, detached with trypsin/EDTA, harvested with 2% ferum bovine serum (FBS) in PBS, centrifuged and resuspended with 2% FBS in PBS and analyzed using a BD FACSaria flow cytometer. Transfection efficiency was measured as percentage of transfected cells.
# Reagents that obtained greater than 50% transfection were also analyzed against HEK293 and B16F10 cell lines. Transfection results (+ percentages of transfection between 5-25%; ++ percentages of transfection between 25-50%; N.D. not determined). MTT toxicity assay results are indicated between brackets with 100% being cell viability of untreated cells.
row,Compound,"Transfection results (percentage of transfected cells), HeLa"
1,CCCCCCCCCCCCCCCC(=O)NCCCN(CCCNC(=O)CCCCCCCCCCCCCCC)C(=O)CCC(=O)N[C@@H](CCCNC(=N)N)C(=O)N[C@@H](CCCNC(=N)N)C(N)=O.O=C(O)C(F)(F)F.O=C(O)C(F)(F)F [Compound A2-Sp3-P],+ (percentages of transfection between 5-25%)
2,CCCCCCCCCCCCCCCC(=O)NCCCN(CCCNC(=O)CCCCCCCCCCCCCCC)C(=O)/C=C\C(=O)N[C@@H](CCCNC(=N)N)C(=O)N[C@@H](CCCNC(=N)N)C(=O)N[C@@H](CCCNC(=N)N)C(N)=O.O=C(O)C(F)(F)F.O=C(O)C(F)(F)F.O=C(O)C(F)(F)F [Compound A3-Sp4-P],+ (percentages of transfection between 5-25%)
3,CCCCCCCCCCCCCCCCCCCCCCCC(=O)NCCCN(CCCNC(=O)CCCCCCCCCCCCCCCCCCCCCCC)C(=O)/C=C\C(=O)N[C@@H](CCCNC(=N)N)C(N)=O.O=C(O)C(F)(F)F [Compound A1-Sp4-L],+ (percentages of transfection between 5-25%)
4,CCCCCCCCCCCCCCCCCCCC(=O)NCCN(CCNC(=O)CCCCCCCCCCCCCCCCCCC)C(=O)/C=C\C(=O)N[C@@H](CCCNC(=N)N)C(=O)N[C@@H](CCCNC(=N)N)C(=O)N[C@@H](CCCNC(=N)N)C(N)=O.O=C(O)C(F)(F)F.O=C(O)C(F)(F)F.O=C(O)C(F)(F)F [Compound A3-Sp2-A],+ (percentages of transfection between 5-25%)
5,CCCCCCCCCCCCCCCC(=O)NCCCN(CCCNC(=O)CCCCCCCCCCCCCCC)C(=O)CCC(=O)N[C@@H](CCCNC(=N)N)C(=O)N[C@@H](CCCNC(=N)N)C(=O)N[C@@H](CCCNC(=N)N)C(N)=O.O=C(O)C(F)(F)F.O=C(O)C(F)(F)F.O=C(O)C(F)(F)F [Compound A3-Sp3-P],++ (percentages of transfection between 25-50%)
6,CCCCCCCCCCCCCCCCCC(=O)NCCN(CCNC(=O)CCCCCCCCCCCCCCCCC)C(=O)CCC(=O)N[C@@H](CCCNC(=N)N)C(=O)N[C@@H](CCCNC(=N)N)C(=O)N[C@@H](CCCNC(=N)N)C(N)=O.O=C(O)C(F)(F)F.O=C(O)C(F)(F)F.O=C(O)C(F)(F)F [Compound A3-Sp1-S],++ (percentages of transfection between 25-50%)
7,CCCCCCCCCCCCCCCCCCCCCCCC(=O)NCCN(CCNC(=O)CCCCCCCCCCCCCCCCCCCCCCC)C(=O)/C=C\C(=O)N[C@@H](CCCNC(=N)N)C(=O)N[C@@H](CCCNC(=N)N)C(=O)N[C@@H](CCCNC(=N)N)C(N)=O.O=C(O)C(F)(F)F.O=C(O)C(F)(F)F.O=C(O)C(F)(F)F [Compound A3-Sp2-L],+ (percentages of transfection between 5-25%)
8,CCCCCCCCCCCCCCCCCCCC(=O)NCCN(CCNC(=O)CCCCCCCCCCCCCCCCCCC)C(=O)CCC(=O)N[C@@H](CCCNC(=N)N)C(=O)N[C@@H](CCCNC(=N)N)C(N)=O.O=C(O)C(F)(F)F.O=C(O)C(F)(F)F [Compound A2-Sp1-A],+ (percentages of transfection between 5-25%)
9,CCCCCCCCCCCCCCCCCC(=O)NCCN(CCNC(=O)CCCCCCCCCCCCCCCCC)C(=O)/C=C\C(=O)N[C@@H](CCCNC(=N)N)C(=O)N[C@@H](CCCNC(=N)N)C(N)=O.O=C(O)C(F)(F)F.O=C(O)C(F)(F)F [Compound A2-Sp2-S],++ (percentages of transfection between 25-50%)
10,CCCCCCCCCCCCCCCCCCCC(=O)NCCCN(CCCNC(=O)CCCCCCCCCCCCCCCCCCC)C(=O)/C=C\C(=O)N[C@@H](CCCNC(=N)N)C(N)=O.O=C(O)C(F)(F)F [Compound A1-Sp4-A],+ (percentages of transfection between 5-25%)
11,CCCCCCCC/C=C\CCCCCCCC(=O)NCCCN(CCCNC(=O)CCCCCCC/C=C\CCCCCCCC)C(=O)/C=C\C(=O)N[C@@H](CCCNC(=N)N)C(=O)N[C@@H](CCCNC(=N)N)C(=O)N[C@@H](CCCNC(=N)N)C(N)=O.O=C(O)C(F)(F)F.O=C(O)C(F)(F)F.O=C(O)C(F)(F)F [Compound A3-Sp4-O],+ (percentages of transfection between 5-25%)
12,CCCCCCCCCCCCCCCCCC(=O)NCCN(CCNC(=O)CCCCCCCCCCCCCCCCC)C(=O)CCC(=O)N[C@@H](CCCNC(=N)N)C(N)=O.O=C(O)C(F)(F)F [Compound A1-Sp1-S],+ (percentages of transfection between 5-25%)
13,CCCCCCCC/C=C\CCCCCCCC(=O)NCCCN(CCCNC(=O)CCCCCCC/C=C\CCCCCCCC)C(=O)CCC(=O)N[C@@H](CCCNC(=N)N)C(=O)N[C@@H](CCCNC(=N)N)C(=O)N[C@@H](CCCNC(=N)N)C(N)=O.O=C(O)C(F)(F)F.O=C(O)C(F)(F)F.O=C(O)C(F)(F)F [Compound A3-Sp3-O],++ (percentages of transfection between 25-50%)
14,CCCCCCCCCCCCCCCCCC(=O)NCCN(CCNC(=O)CCCCCCCCCCCCCCCCC)C(=O)/C=C\C(=O)N[C@@H](CCCNC(=N)N)C(N)=O.O=C(O)C(F)(F)F [Compound A1-Sp2-S],+ (percentages of transfection between 5-25%)
15,CCCCCCCCCCCCCCCC(=O)NCCCN(CCCNC(=O)CCCCCCCCCCCCCCC)C(=O)/C=C\C(=O)N[C@@H](CCCNC(=N)N)C(=O)N[C@@H](CCCNC(=N)N)C(N)=O.O=C(O)C(F)(F)F.O=C(O)C(F)(F)F [Compound A2-Sp4-P],+ (percentages of transfection between 5-25%)
16,CCCCCCCCCCCCCCCCCCCCCCCC(=O)NCCCN(CCCNC(=O)CCCCCCCCCCCCCCCCCCCCCCC)C(=O)/C=C\C(=O)N[C@@H](CCCNC(=N)N)C(=O)N[C@@H](CCCNC(=N)N)C(=O)N[C@@H](CCCNC(=N)N)C(N)=O.O=C(O)C(F)(F)F.O=C(O)C(F)(F)F.O=C(O)C(F)(F)F [Compound A3-Sp4-L],++ (percentages of transfection between 25-50%)
17,CCCCCCCCCCCCCCCC(=O)NCCN(CCNC(=O)CCCCCCCCCCCCCCC)C(=O)CCC(=O)N[C@@H](CCCNC(=N)N)C(N)=O.O=C(O)C(F)(F)F [Compound A1-Sp1-P],+ (percentages of transfection between 5-25%)
18,CCCCCCCCCCCCCCCCCCCCCCCC(=O)NCCN(CCNC(=O)CCCCCCCCCCCCCCCCCCCCCCC)C(=O)/C=C\C(=O)N[C@@H](CCCNC(=N)N)C(N)=O.O=C(O)C(F)(F)F [Compound A1-Sp2-L],+ (percentages of transfection between 5-25%)
19,CCCCCCCC/C=C\CCCCCCCC(=O)NCCN(CCNC(=O)CCCCCCC/C=C\CCCCCCCC)C(=O)CCC(=O)N[C@@H](CCCNC(=N)N)C(=O)N[C@@H](CCCNC(=N)N)C(N)=O.O=C(O)C(F)(F)F.O=C(O)C(F)(F)F [Compound A2-Sp1-O],++ (percentages of transfection between 25-50%)
20,CCCCCCCCCCCCCCCCCCCCCCCC(=O)NCCN(CCNC(=O)CCCCCCCCCCCCCCCCCCCCCCC)C(=O)CCC(=O)N[C@@H](CCCNC(=N)N)C(=O)N[C@@H](CCCNC(=N)N)C(N)=O.O=C(O)C(F)(F)F.O=C(O)C(F)(F)F [Compound A2-Sp1-L],+ (percentages of transfection between 5-25%)
21,CCCCCCCCCCCCCCCCCCCC(=O)NCCCN(CCCNC(=O)CCCCCCCCCCCCCCCCCCC)C(=O)/C=C\C(=O)N[C@@H](CCCNC(=N)N)C(=O)N[C@@H](CCCNC(=N)N)C(N)=O.O=C(O)C(F)(F)F.O=C(O)C(F)(F)F [Compound A2-Sp4-A],+ (percentages of transfection between 5-25%)
22,CCCCCCCC/C=C\CCCCCCCC(=O)NCCCN(CCCNC(=O)CCCCCCC/C=C\CCCCCCCC)C(=O)CCC(=O)N[C@@H](CCCNC(=N)N)C(=O)N[C@@H](CCCNC(=N)N)C(N)=O.O=C(O)C(F)(F)F.O=C(O)C(F)(F)F [Compound A2-Sp3-O],++ (percentages of transfection between 25-50%)
23,CCCCCCCCCCCCCCCCCCCCCCCC(=O)NCCCN(CCCNC(=O)CCCCCCCCCCCCCCCCCCCCCCC)C(=O)CCC(=O)N[C@@H](CCCNC(=N)N)C(=O)N[C@@H](CCCNC(=N)N)C(N)=O.O=C(O)C(F)(F)F.O=C(O)C(F)(F)F [Compound A2-Sp3-L],+ (percentages of transfection between 5-25%)
24,CCCCCCCCCCCCCCCCCCCC(=O)NCCN(CCNC(=O)CCCCCCCCCCCCCCCCCCC)C(=O)CCC(=O)N[C@@H](CCCNC(=N)N)C(=O)N[C@@H](CCCNC(=N)N)C(=O)N[C@@H](CCCNC(=N)N)C(N)=O.O=C(O)C(F)(F)F.O=C(O)C(F)(F)F.O=C(O)C(F)(F)F [Compound A3-Sp1-A],+ (percentages of transfection between 5-25%)
25,CCCCCCCCCCCCCCCCCCCC(=O)NCCCN(CCCNC(=O)CCCCCCCCCCCCCCCCCCC)C(=O)CCC(=O)N[C@@H](CCCNC(=N)N)C(=O)N[C@@H](CCCNC(=N)N)C(N)=O.O=C(O)C(F)(F)F.O=C(O)C(F)(F)F [Compound A2-Sp3-A],+ (percentages of transfection between 5-25%)
